Measurements reported in PubChem BioAssay AID330 (DTP/NCI, 2004).
“And” between values parts separate entries of the source, which are not always exact repeats. Equal entries are not always repeated. Toxic doses and inconclusive results are not listed.

System: P388 leukemia ip, CD2F1 mice, survival T/C
Assay: NCI In Vivo Anticancer Drug Screen. Data for tumor model P388 Leukemia (intraperitoneal) in CD2F1 (CDF1) mice
Details: endpoint: median survival time, higher = longer survival
Procedure, shortened: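 Mice carrying the transplanted tumor received test compound or vehicle. Survival was recorded in each group, and the value is the treated-group measurement divided by that of the vehicle-treated control group.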

[1] = dose: 50.0 mg/kg/injection, schedule: Q01DX005 (ip), vehicle: Klucel (hydroxypropylcellulose) (HPC)
[2] = dose: 100.0 mg/kg/injection, schedule: Q01DX005 (ip), vehicle: Klucel (hydroxypropylcellulose) (HPC)
[3] = dose: 200.0 mg/kg/injection, schedule: Q01DX005 (ip), vehicle: Klucel (hydroxypropylcellulose) (HPC)
[4] = dose: 25.0 mg/kg/injection, schedule: Q01DX009 (ip), vehicle: saline with Tween-80
[5] = dose: 50.0 mg/kg/injection, schedule: Q01DX009 (ip), vehicle: saline with Tween-80
[6] = dose: 100.0 mg/kg/injection, schedule: Q01DX009 (ip), vehicle: saline with Tween-80
[7] = dose: 50.0 mg/kg/injection, schedule: Q01DX005 (ip), vehicle: saline with Tween-80
[8] = dose: 100.0 mg/kg/injection, schedule: Q01DX005 (ip), vehicle: saline with Tween-80
[9] = dose: 200.0 mg/kg/injection, schedule: Q01DX005 (ip), vehicle: saline with Tween-80
[10] = dose: 200.0 mg/kg/injection, schedule: Q01DX009 (ip), vehicle: saline with Tween-80
[11] = dose: 6.25 mg/kg/injection, schedule: Q01DX009 (ip), vehicle: saline with Tween-80
[12] = dose: 12.5 mg/kg/injection, schedule: Q01DX009 (ip), vehicle: saline with Tween-80
[13] = dose: 50.0 mg/kg/injection, schedule: Q01DX009 (ip), vehicle: saline
[14] = dose: 100.0 mg/kg/injection, schedule: Q01DX009 (ip), vehicle: saline
[15] = dose: 200.0 mg/kg/injection, schedule: Q01DX009 (ip), vehicle: saline
[16] = dose: 60.0 mg/kg/injection, schedule: Q01DX005 (ip), vehicle: saline
[17] = dose: 120.0 mg/kg/injection, schedule: Q01DX005 (ip), vehicle: saline

## Cc1ccc(N2C(=O)CSC2=S)cc1Br
dose: 50.0 mg/kg/injection, schedule: Q01DX009 (ip), vehicle: suspension in saline
  T/C: 93 % of control
dose: 100.0 mg/kg/injection, schedule: Q01DX009 (ip), vehicle: suspension in saline
  T/C: 105 % of control
dose: 200.0 mg/kg/injection, schedule: Q01DX009 (ip), vehicle: suspension in saline
  T/C: 93 % of control

## CC(Nc1cnccn1)Nc1cnccn1
[1]
  T/C: 102 % of control
[2]
  T/C: 105 % of control
[3]
  T/C: 104 % of control

## CCCCc1ccc(NC(=O)On2c3ccccc3c3ccccc32)cc1
[1]
  T/C: 96 % of control
[2]
  T/C: 94 % of control
[3]
  T/C: 95 % of control

## Nc1ccc(-c2nc3ccccc3c(=O)[nH]2)cc1
dose: 12.5 mg/kg/injection, schedule: Q01DX009 (ip), vehicle: Klucel (hydroxypropylcellulose) (HPC)
  T/C: 86 % of control
dose: 25.0 mg/kg/injection, schedule: Q01DX009 (ip), vehicle: Klucel (hydroxypropylcellulose) (HPC)
  T/C: 100 % of control and 108 % of control and 92 % of control
dose: 100.0 mg/kg/injection, schedule: Q01DX009 (ip), vehicle: Klucel (hydroxypropylcellulose) (HPC)
  T/C: 122 % of control and 90 % of control and 94 % of control
dose: 200.0 mg/kg/injection, schedule: Q01DX009 (ip), vehicle: Klucel (hydroxypropylcellulose) (HPC)
  T/C: 111 % of control

## O=C1CN(/N=C\c2ccc([N+](=O)[O-])o2)C(=O)N1
[4]
  T/C: 100 % of control
dose: 25.0 mg/kg/injection, schedule: Q04DX003 (ip), vehicle: saline with Tween-80
  T/C: 110 % of control
[5]
  T/C: 100 % of control
dose: 50.0 mg/kg/injection, schedule: Q04DX003 (ip), vehicle: saline with Tween-80
  T/C: 110 % of control
[6]
  T/C: 109 % of control
dose: 100.0 mg/kg/injection, schedule: Q04DX003 (ip), vehicle: saline with Tween-80
  T/C: 105 % of control

## CCOc1c(OC)cc(C2c3cc4c(c(OCC)c3CC3COC(=O)C32)OCO4)cc1OC (stereo not drawn)
dose: 12.5 mg/kg/injection, schedule: Q01DX005 (ip), vehicle: Klucel (hydroxypropylcellulose) (HPC)
  T/C: 94 % of control
dose: 25.0 mg/kg/injection, schedule: Q01DX005 (ip), vehicle: Klucel (hydroxypropylcellulose) (HPC)
  T/C: 91 % of control
[1]
  T/C: 86 % of control
[2]
  T/C: 97 % of control

## O=C(O)c1c(-c2ccccc2)nn(-c2ccccc2)c1-c1ccccc1
dose: 50.0 mg/kg/injection, schedule: Q04DX003 (ip), vehicle: suspension in saline
  T/C: 108 % of control
dose: 100.0 mg/kg/injection, schedule: Q04DX003 (ip), vehicle: suspension in saline
  T/C: 106 % of control
dose: 200.0 mg/kg/injection, schedule: Q04DX003 (ip), vehicle: suspension in saline
  T/C: 102 % of control

## OCC(O)C(O)C(O)C(O)C(O)c1nc2ccccc2[nH]1 (stereo not drawn)
[1]
  T/C: 98 % of control
[2]
  T/C: 102 % of control
[3]
  T/C: 100 % of control

## COc1cc2c(cc1C(C)c1ccc(Br)cc1)OCO2 (stereo not drawn)
[7]
  T/C: 96 % of control
[8]
  T/C: 103 % of control
[9]
  T/C: 100 % of control

## CCOC(=O)Nc1ccc(OCC)cc1
dose: 100.0 mg/kg/injection, schedule: Q04DX003 (ip), vehicle: Klucel (hydroxypropylcellulose) (HPC)
  T/C: 107 % of control
dose: 200.0 mg/kg/injection, schedule: Q04DX003 (ip), vehicle: Klucel (hydroxypropylcellulose) (HPC)
  T/C: 100 % of control
dose: 400.0 mg/kg/injection, schedule: Q04DX003 (ip), vehicle: Klucel (hydroxypropylcellulose) (HPC)
  T/C: 92 % of control

## CN(C)/C=C1\C(=O)O[C@H]2CCC[C@@]12C
dose: 100.0 mg/kg/injection, schedule: Q01DX001 (ip), vehicle: saline with Tween-80
  T/C: 107 % of control
dose: 200.0 mg/kg/injection, schedule: Q01DX001 (ip), vehicle: saline with Tween-80
  T/C: 106 % of control

## CC(=O)N(C)O
[5]
  T/C: 100 % of control and 104 % of control
[6]
  T/C: 105 % of control and 110 % of control
[9]
  T/C: 121 % of control
dose: 400.0 mg/kg/injection, schedule: Q01DX009 (ip), vehicle: saline with Tween-80
  T/C: 160 % of control

## O=[N+]([O-])c1ccc2[nH]ncc2c1
[5]
  T/C: 100 % of control
[6]
  T/C: 100 % of control
[10]
  T/C: 110 % of control

## NNP(=O)(Oc1ccccc1)Oc1ccccc1
dose: 3.12 mg/kg/injection, schedule: Q01DX009 (ip), vehicle: saline with Tween-80
  T/C: 110 % of control
[11]
  T/C: 101 % of control
[12]
  T/C: 106 % of control
[4]
  T/C: 109 % of control and 110 % of control

## Nc1nc(N)c2cc(CNc3ccc(C(=O)NC(C(=O)O)C(=O)O)cc3)ccc2n1
dose: 0.05 mg/kg/injection, schedule: Q01DX009 (ip), vehicle: saline sonified
  T/C: 168 % of control
dose: 0.1 mg/kg/injection, schedule: Q01DX009 (ip), vehicle: saline sonified
  T/C: 204 % of control
dose: 0.2 mg/kg/injection, schedule: Q01DX009 (ip), vehicle: saline sonified
  T/C: 86 % of control
dose: 100.0 micrograms/kg/injection, schedule: Q01DX009 (ip), vehicle: saline sonified
  T/C: 159 % of control

## C/C=C(\C)C(N)=O
[13]
  T/C: 90 % of control
[14]
  T/C: 100 % of control
[15]
  T/C: 95 % of control

## COc1ccc2c(N)cccc2c1
[13]
  T/C: 92 % of control
[14]
  T/C: 88 % of control
[15]
  T/C: 95 % of control

## CC(C)(C)/C(=N\NC(=O)CCCl)c1ccccc1
[5]
  T/C: 97 % of control
[6]
  T/C: 97 % of control
[10]
  T/C: 95 % of control

## [N-]=[N+]=Nc1ccc(NCCCCCC(=O)ON2C(=O)CCC2=O)c([N+](=O)[O-])c1
[7]
  T/C: 106 % of control
[8]
  T/C: 106 % of control
[9]
  T/C: 106 % of control

## O=Cc1ccc2occc2c1O
dose: 3.75 mg/kg/injection, schedule: Q01DX009 (ip), vehicle: saline with Tween-80
  T/C: 95 % of control
dose: 7.5 mg/kg/injection, schedule: Q01DX009 (ip), vehicle: saline with Tween-80
  T/C: 94 % of control
dose: 15.0 mg/kg/injection, schedule: Q01DX009 (ip), vehicle: saline with Tween-80
  T/C: 92 % of control

## C/C(C/C(C)=N/C(N)=S)=N\C(N)=S
[16]
  T/C: 100 % of control
[17]
  T/C: 95 % of control
dose: 240.0 mg/kg/injection, schedule: Q01DX005 (ip), vehicle: saline
  T/C: 100 % of control

## O=C(O)c1ccccc1.O=C(O)c1ccccc1.O=C(O)c1ccccc1.O=C(O)c1ccccc1.[Cu].[Cu]
dose: 7.5 mg/kg/injection, schedule: Q01DX005 (ip), vehicle: Klucel (hydroxypropylcellulose) (HPC)
  T/C: 99 % of control
dose: 15.0 mg/kg/injection, schedule: Q01DX005 (ip), vehicle: Klucel (hydroxypropylcellulose) (HPC)
  T/C: 97 % of control

## Cc1ccc(C(=O)NCCN2CCN3Cc4[nH]c5ccccc5c4CC3C2)cc1 (stereo not drawn)
dose: 100.0 mg/kg/injection, schedule: Q04DX002 (ip), vehicle: saline with Tween-80
  T/C: 92 % of control
dose: 200.0 mg/kg/injection, schedule: Q04DX002 (ip), vehicle: saline with Tween-80
  T/C: 105 % of control

## Cc1ccc(-c2csc3nc(C)c(CN4CCOCC4)c(=O)n23)cc1
dose: 25.0 mg/kg/injection, schedule: Q04DX002 (ip), vehicle: Klucel (hydroxypropylcellulose) (HPC)
  T/C: 99 % of control
dose: 50.0 mg/kg/injection, schedule: Q04DX002 (ip), vehicle: Klucel (hydroxypropylcellulose) (HPC)
  T/C: 106 % of control
dose: 100.0 mg/kg/injection, schedule: Q04DX002 (ip), vehicle: Klucel (hydroxypropylcellulose) (HPC)
  T/C: 101 % of control
dose: 200.0 mg/kg/injection, schedule: Q04DX002 (ip), vehicle: Klucel (hydroxypropylcellulose) (HPC)
  T/C: 102 % of control

## CC(C)Cc1cc(-c2cc(CC(C)C)nc(N)n2)nc(N)n1
[16]
  T/C: 100 % of control
[17]
  T/C: 90 % of control

## CC1(C)C=C(NC(=O)N2CC2)C(C)(C)N1O
[11]
  T/C: 100 % of control
[12]
  T/C: 103 % of control
[4]
  T/C: 103 % of control
[5]
  T/C: 117 % of control

## CC(=O)Nc1ccc(/C=N/NC(=O)c2ccc(C)cc2)cc1
[4]
  T/C: 103 % of control
[5]
  T/C: 86 % of control

## CCCCCCCCOCC(=O)O
[5]
  T/C: 107 % of control
[6]
  T/C: 94 % of control
[10]
  T/C: 96 % of control

## COc1ccc(Cc2nnc3nc(OC)c(-c4ccc(OC)cc4)n3n2)cc1
[7]
  T/C: 108 % of control and 87 % of control
[8]
  T/C: 108 % of control
[9]
  T/C: 86 % of control and 98 % of control

## O=S1(=O)CC(N2CCOCC2)C2=C(O1)c1sc(-c3ccccc3)nc1CC2 (stereo not drawn)
[1]
  T/C: 104 % of control
[2]
  T/C: 105 % of control
[3]
  T/C: 98 % of control

## c1ccc(-c2cc[n+]3c4c2ccc2c(-c5ccccc5)cc[n+](c24)CC3)cc1
dose: 6.25 mg/kg/injection, schedule: Q01DX009 (ip), vehicle: saline
  T/C: 99 % of control
dose: 12.5 mg/kg/injection, schedule: Q01DX009 (ip), vehicle: saline
  T/C: 98 % of control and 100 % of control
dose: 25.0 mg/kg/injection, schedule: Q01DX009 (ip), vehicle: saline
  T/C: 104 % of control and 117 % of control
